Structures are written as SMILES. Bounds are passed on as bounds.

For one assay, the system named is A/WSN/33 virus (M2-S31N). The format is cell-based, influenza A virus.
Details: not given
`c1c(CNC23CC4CC(CC(C4)C2)C3)noc1C1CC1` [14c]: the “decrease of plaque number” value is “more than 50%”. Still for that read-out and setting: with `c1c(CNC23CC4CC(CC(C4)C2)C3)noc1C1CCC1` [14d] the entry was “more than 50%”.

The same assay, now with this note: read-out: Plaque Reduction EC50.
Take `OC1C2CC3CC1CC(NCc1cc(-c4cccs4)on1)(C3)C2` (centres unmarked) [30b]: the concentration giving a half-maximal response (EC50) was below 1000 nM.

Regarding `OC12CC3CC(C1)CC(NCc1cc(-c4cccs4)on1)(C3)C2` [compound 30f], the half-maximal effective concentration (EC50) was below 1000 nM.

The next assay deals with T1, S31N mutant of the A/M2 protein (Influenza A virus, UniProt P0DOF5, S31N). Format: biochemical.
Details: not given
Regarding `CCCc1cc(CNC23CC4CC(CC(C4)C2)C3)no1` [14b], the “% S31N inhibition” value is on record as 81/49%.

Take `c1c(CNC23CC4CC(CC(C4)C2)C3)noc1C1CCC1` [14d]: the “% S31N inhibition” value is 84/N.T. %. On the same count and under the same terms, the same measure for `COCc1cc(CNC23CC4CC(CC(C4)C2)C3)no1` [14e]: 39/N.T. %; for `CC(C)c1cc(CNC23CC4CC(CC(C4)C2)C3)no1` [14f]: 80/55%; for `CSC(C)(C)Cc1cc(CNC23CC4CC(CC(C4)C2)C3)no1` [14g]: 70/N.T. %. As for `c1cc(-c2cc(CNC34CC5CC(CC(C5)C3)C4)no2)cs1` [14i], the “% S31N inhibition” value was 90/N.T. %. Turning to `c1coc(-c2cc(CNC34CC5CC(CC(C5)C3)C4)no2)c1` [14j], the “% S31N inhibition” value is recorded as 84/N.T. %. Still for that read-out and setting: the same measure for `COc1ccsc1-c1cc(CNC23CC4CC(CC(C4)C2)C3)no1` [14k]: 90/87%; for `Clc1ccccc1-c1cc(CNC23CC4CC(CC(C4)C2)C3)no1` [14m]: 87/65%. Same read-out and setting: the same measure for `Brc1ccccc1-c1cc(CNC23CC4CC(CC(C4)C2)C3)no1` [14n]: 77/N.T. %; for `Fc1cc(F)cc(-c2cc(CNC34CC5CC(CC(C5)C3)C4)no2)c1` [14o]: 78/N.T. %; for `Fc1cccc(F)c1-c1cc(CNC23CC4CC(CC(C4)C2)C3)no1` [14p]: 85/68%. Still for that read-out and setting: with `COc1cccc(-c2cc(CNC34CC5CC(CC(C5)C3)C4)no2)c1` [14r] the figure was 87/73%. On to `CSc1ccccc1-c1cc(CNC23CC4CC(CC(C4)C2)C3)no1` [14s], for which the “% S31N inhibition” value is on record as 79/N.T. %. As to `CCCc1nc(CNC23CC4CC(CC(C4)C2)C3)no1` [18b], the “% S31N inhibition” value is given as 77/19%.

As for `CC(C)Cc1nc(CNC23CC4CC(CC(C4)C2)C3)no1` [18e], the “% S31N inhibition” value was 62/N.T. %. As to `c1cc(-c2nc(CNC34CC5CC(CC(C5)C3)C4)no2)cs1` [18g], the “% S31N inhibition” value is reported as 81/N.T. %. Same read-out and setting: the same measure for `c1coc(-c2nc(CNC34CC5CC(CC(C5)C3)C4)no2)c1` [18h]: 73/N.T. %; for `COc1ccc(-c2noc(CNC34CC5CC(CC(C5)C3)C4)n2)cc1OC` [20a]: 39/N.T. %.

In the case of `COc1ccccc1-c1noc(CNC23CC4CC(CC(C4)C2)C3)n1` [20b], the “% S31N inhibition” value is listed as 58/N.T. %. The same measure, in the same setting: the same measure for `c1c(C2CCCCC2)noc1CNC12CC3CC(CC(C3)C1)C2` [20c]: 67/N.T. %; for `c1csc(-c2nnc(CNC34CC5CC(CC(C5)C3)C4)o2)c1` [26a]: 52/N.T. %; for `c1csc(-c2nnc(CNC34CC5CC(CC(C5)C3)C4)s2)c1` [26b]: 83/N.T. %. Same read-out and setting: the same measure for `c1ccc(-c2nnc(CNC34CC5CC(CC(C5)C3)C4)o2)cc1` [26c]: 61/N.T. %; for `COc1ccc(-c2nnc(CNC34CC5CC(CC(C5)C3)C4)o2)cc1` [26d]: 58/N.T. %; for `c1csc(-c2ncc(CNC34CC5CC(CC(C5)C3)C4)s2)c1` [26e]: 75/N.T. %.

In the case of `c1csc(-c2nc(CNC34CC5CC(CC(C5)C3)C4)cs2)c1` [26h], the “% S31N inhibition” value is 37/N.T. %. With `c1ccc(-c2nc(CNC34CC5CC(CC(C5)C3)C4)cs2)cc1` [26i], the “% S31N inhibition” value was 24/N.T. %. On the same count and under the same terms, with `O=C1C2CC3CC1CC(NCc1cc(-c4cccs4)on1)(C3)C2` [30a] the figure was 78/N.T. %; with `OC1C2CC3CC1CC(NCc1cc(-c4cccs4)on1)(C3)C2` (centres unmarked) [30b], 91/56%; with `CC1(O)C2CC3CC1CC(NCc1cc(-c4cccs4)on1)(C3)C2` (centres unmarked) [30c], 87/48%. On to `c1csc(-c2cc(CNC34CC5CC(C3)C3(CO3)C(C5)C4)no2)c1` (centres unmarked) [30d], for which the “% S31N inhibition” value was 61/N.T. %.

For the molecule `c1csc(-c2cc(CNC34CC5COC(CC(C5)C3)C4)no2)c1` (centres unmarked) [30e], the “% S31N inhibition” value is on record as 72/N.T. %. Same read-out and setting: the same measure for `NC12CC3CC(CC(C3)C1)C2` [AMT (1), amantadine, reference compound]: 36%; for `Oc1ccc(NC23CC4CC(CC(C4)C2)C3)c(O)c1` [compound 5]: 67%; for `COc1ccc(-c2cc(CNC34CC5CC(CC(C5)C3)C4)no2)c(OC)c1` [compound 14t]: 62/N.T. %. Turning to `COc1ccc(-c2nc(CNC34CC5CC(CC(C5)C3)C4)no2)c(OC)c1` [compound 18m], the “% S31N inhibition” value is given as 82/N.T. %. In the case of `OC12CC3CC(O)(C1)CC(NCc1cc(-c4cccs4)on1)(C3)C2` [compound 30h], the “% S31N inhibition” value is recorded as 88/45%.

A further assay addresses T1, S31N mutant of the A/M2 protein. Conditions: 100 µM drug; percent inhibition in TEVC assays was previously reported; cited from earlier work.
On to `Cc1cc(CNC23CC4CC(CC(C4)C2)C3)no1` [14a], for which the “% S31N inhibition” value is 49/N.T. %. For the molecule `c1ccc(-c2cc(CNC34CC5CC(CC(C5)C3)C4)no2)cc1` [14l], the “% S31N inhibition” value is reported as 91/N.T. %. `COc1ccc(-c2cc(CNC34CC5CC(CC(C5)C3)C4)no2)cc1` [14q]: the “% S31N inhibition” value is 87/N.T. %.

Regarding `Cc1nc(CNC23CC4CC(CC(C4)C2)C3)no1` [18a], the “% S31N inhibition” value is recorded as 60/N.T. %. For the molecule `CC(C)c1nc(CNC23CC4CC(CC(C4)C2)C3)no1` [18d], the “% S31N inhibition” value is 70/N.T. %.

In the case of `c1csc(-c2nc(CNC34CC5CC(CC(C5)C3)C4)no2)c1` [18f], the “% S31N inhibition” value is recorded as 83/N.T. %.

Consider `c1ccc(-c2nc(CNC34CC5CC(CC(C5)C3)C4)no2)cc1` [18i], for which the “% S31N inhibition” value is given as 75/N.T. %.

`COc1ccc(-c2nc(CNC34CC5CC(CC(C5)C3)C4)no2)cc1` [18k]: the “% S31N inhibition” value is on record as 86/N.T. %.

(Values after publication PMC4829348 (Journal of medicinal chemistry, 2016).)
